Laboratory results from patent US4177350A, “Imidazole ethyl oxyalkoxy derivatives and thio analogues thereof” (Siegfried Aktiengesellschaft, priority 1977, dated 1979).
Converted amounts (≈) assume the structure as drawn.

Assays:
[1] = oral toxicity LD50 per os, mice; conditions: mouse, in vivo
Text: (§2) The results of these tests are summarized in the following Table I together with the oral toxicity values (LD50 per os; mice, values in mg per kg of body weight) determined in the conventional manner.

[2] = tested on: Streptococcus faecalis; assay: minimum inhibitory concentration, gradient plate method, Streptococcus faecalis; type: cell-based; set-up: key to partial resistancy, Bacteria, Str: partial resistancy observed; conditions: for MIC: Enterococcus faecalis, 72 h, gradient 0-100 μg/ml, 10% aqueous dimethyl formamide, evaluated three days after inoculation, read-out: Minimum Inhibitory Concentration, Bacteria, Str
Text: (§1) Test evaluation was made three days after inoculation.

[3] = tested on: Staphylococcus aureus haemolyticus; assay: minimum inhibitory concentration, gradient plate method, Staphylococcus aureus haemolyticus; type: cell-based; set-up: key to partial resistancy, Bacteria, St: partial resistancy observed; conditions: for MIC: 72 h, gradient 0-100 μg/ml, 10% aqueous dimethyl formamide, evaluated three days after inoculation, read-out: Minimum Inhibitory Concentration, Bacteria, St
Text: as §1

[4] = tested on: Aspergillus niger; assay: minimum inhibitory concentration, gradient plate method, Aspergillus niger; type: cell-based; conditions: 72 h, gradient 0-100 μg/ml, 10% aqueous dimethyl formamide, evaluated three days after inoculation, read-out: Minimum Inhibitory Concentration, Fungi, Asp
Text: as §1

[5] = tested on: Trichophyton mentagrophytes; assay: minimum inhibitory concentration, gradient plate method, Trichophyton mentagrophytes; type: cell-based; conditions: 72 h, gradient 0-100 μg/ml, 10% aqueous dimethyl formamide, evaluated three days after inoculation, read-out: Minimum Inhibitory Concentration, Fungi, Tri
Text: as §1

[6] = in vivo; conditions: mouse, po
Text: as §2

[7] = tested on: mice; conditions: oral, value as reported by Thienpont et al, Arzneimittelforschung 1975, 25, 224; cited from earlier work

Clc1ccc(SCCCOC(Cn2ccnc2)c2ccc(Cl)cc2Cl)cc1.O=[N+]([O-])O (stereo not drawn) [Example 31, 1-{β-[3-(p-chlorophenylthio)-propoxy]-2,4-dichlorophenethyl}-imidazole nitrate]
LD50 [1]: 4300 mg/kg | MIC [2]: < 10 µg/mL | MIC [3]: < 10 µg/mL | MIC [4]: < 10 µg/mL | MIC [5]: < 10 µg/mL

Clc1ccc(OCCCCOC(Cn2ccnc2)c2ccc(Cl)cc2Cl)cc1.O=[N+]([O-])O (stereo not drawn) [Example 35, 1-{β-[4-(p-chlorophenoxy)-butoxy]-2,4-dichlorophenethyl}-imidazole nitrate]
LD50 [1]: > 4000 mg/kg | partial resistancy, Bacteria, Str [2]: r | MIC [3]: 10 µg/mL | MIC [4]: < 10 µg/mL | MIC [5]: < 10 µg/mL

Clc1ccc(OCCCOC(Cn2ccnc2)c2ccc(Cl)cc2Cl)cc1 (stereo not drawn) [Example 30, 1-{β-[3-(p-chlorophenoxy)-propoxy-2,4-dichlorophenethyl]}-imidazole nitrate]
MIC [2]: < 10 µg/mL | LD50 [6]: > 4000 mg/kg | MIC [3]: < 10 µg/mL | MIC [4]: < 10 µg/mL | MIC [5]: < 10 µg/mL

Clc1ccc(OCOC(Cn2ccnc2)c2ccc(Cl)cc2Cl)c(Cl)c1 (stereo not drawn) [Example 5, 1-β-(2,4-dichlorophenoxymethoxy-2,4-dichlorophenethyl)-imidazole nitrate]
MIC [2]: < 10 µg/mL | LD50 [6]: > 3000 mg/kg | MIC [3]: < 10 µg/mL | MIC [4]: < 10 µg/mL | MIC [5]: < 10 µg/mL

CSCOC(Cn1ccnc1)c1ccc(Cl)cc1Cl (stereo not drawn) [Example 10, 1-β-(methylthiomethoxy-2,4-dichlorophenethyl)-imidazole nitrate]
MIC [2]: 30 µg/mL | LD50 [6]: ~950 mg/kg | MIC [3]: 20 µg/mL | MIC [4]: < 10 µg/mL | MIC [5]: < 10 µg/mL

COc1ccc(OCOC(Cn2ccnc2)c2ccc(Cl)cc2Cl)cc1 (stereo not drawn) [Example 7, 1-β-(4-methoxyphenoxymethoxy-2,4-dichlorophenethyl)-imidazole nitrate]
MIC [2]: 30 µg/mL | LD50 [6]: 2600 mg/kg | MIC [3]: 10 µg/mL | MIC [4]: < 10 µg/mL | MIC [5]: < 10 µg/mL

Clc1ccc(SCCCCOC(Cn2ccnc2)c2ccc(Cl)cc2Cl)cc1 (stereo not drawn) [Example 36, 1-{β-[4-(p-chlorophenylthio)-butoxy]-2,4-dichlorophenethyl}-imidazolenitrate]
partial resistancy, Bacteria, Str [2]: r | LD50 [6]: > 3000 mg/kg | MIC [3]: < 10 µg/mL | MIC [4]: 35 µg/mL (≈ 76.8 µM) | MIC [5]: < 10 µg/mL

Clc1ccc(C(Cn2ccnc2)OCSc2ccccc2)c(Cl)c1 (stereo not drawn) [Example 11, 1-β-(phenylthiomethoxy-2,4-dichlorophenethyl)-imidazole nitrate]
MIC [2]: 20 µg/mL | LD50 [6]: > 3000 mg/kg | MIC [3]: < 10 µg/mL | MIC [4]: < 10 µg/mL | MIC [5]: < 10 µg/mL

Clc1ccc(SCOC(Cn2ccnc2)c2ccc(Cl)cc2Cl)nc1 (stereo not drawn) [Example 26, 1-β[(5'-chloropyridyl-2'-thiomethoxy)-2,4-dichlorophenethyl)]-imidazole nitrate]
MIC [2]: 20 µg/mL | LD50 [6]: ~2700 mg/kg | MIC [3]: 10 µg/mL | MIC [4]: < 10 µg/mL | MIC [5]: < 10 µg/mL

Clc1ccc(OCCOCCOC(Cn2ccnc2)c2ccc(Cl)cc2Cl)cc1 (stereo not drawn) [Example 17, 1-{β-[2-(p-chlorophenoxyethoxy)-ethoxy-2,4-dichlorophenethyl]}-imidazole nitrate]
MIC [2]: 10 µg/mL | LD50 [6]: 2500 mg/kg | MIC [3]: < 10 µg/mL | MIC [4]: 10 µg/mL | MIC [5]: < 10 µg/mL

Clc1ccc(C(Cn2ccnc2)OCSc2ccc(Br)cc2)c(Cl)c1 (stereo not drawn) [Example 12, 1-β-(4-bromophenylthiomethoxy-2,4-dichlorophenethyl)-imidazole nitrate]
MIC [2]: 10 µg/mL | LD50 [6]: 12500 mg/kg | MIC [3]: < 10 µg/mL | MIC [4]: < 10 µg/mL | MIC [5]: < 10 µg/mL

Clc1ccc(C(Cn2ccnc2)OCCOc2ccccc2)c(Cl)c1 (stereo not drawn) [Example 27, 1-β-(phenoxyethoxy-2,4-dichlorophenethyl)-imidazole nitrate]
MIC [2]: 30 µg/mL | LD50 [6]: ~800 mg/kg | partial resistancy, Bacteria, St [3]: r | MIC [4]: < 10 µg/mL | MIC [5]: < 10 µg/mL

Clc1ccc(COC(Cn2ccnc2)c2ccc(Cl)cc2Cl)cc1 (centres unmarked) [ECONAZOLE, reference compound]
MIC [2]: < 10 µg/mL | MIC [3]: < 10 µg/mL | Toxicity LD50 per os [7]: 462.7 mg/kg | MIC [4]: < 10 µg/mL | MIC [5]: < 10 µg/mL
